According to ChEMBL document CHEMBL1158695, “Cytotoxic sterol derivatives from a marine sponge Homaxinella sp” (2005):
Converted amounts (≈) assume the structure as drawn.

Experiments:
Details in all cases: read-out: ED50 (the source's name)
[1] = system: HCT-15 (human colon cancer); assay: Cytotoxicity against human HCT15 cells
SK-OV-3 = assay: Cytotoxicity against human SKOV3 cells; assay type: functional
A549 = assay: Cytotoxicity against human A549 cells; assay type: functional
SK-MEL-2 = assay: Cytotoxicity against human SK-MEL-2 cells; assay type: functional
XF498 = assay: Cytotoxicity against human XF498 cells; assay type: functional

## CCCCO[C@@H]1C=C2[C@@H]3CC[C@H]([C@H](C)/C=C/[C@H](C)C(C)C)[C@@]3(C)CC[C@@H]2[C@@]2(C)CC[C@H](O)C[C@]12O [HOMAXISTEROL A3]
[1]
  EC50: 7.1 mg/L (≈ 14.6 µM)
SK-OV-3
  EC50: 7.85 mg/L (≈ 16.1 µM)
A549
  EC50: 8.42 mg/L (≈ 17.3 µM)
SK-MEL-2
  EC50: 6.1 mg/L (≈ 12.5 µM)
XF498
  EC50: 5.03 mg/L (≈ 10.3 µM)

## CCCCO[C@@H]1C=C2[C@@H]3CC[C@H]([C@H](C)/C=C/[C@H](CC)C(C)C)[C@@]3(C)CC[C@@H]2[C@@]2(C)CC[C@H](O)C[C@]12O [HOMAXISTEROL A4]
[1]
  EC50: > 30 mg/L
SK-OV-3
  EC50: > 30 mg/L
A549
  EC50: > 30 mg/L
SK-MEL-2
  EC50: > 30 mg/L
XF498
  EC50: 34.1 mg/L (≈ 68.1 µM)

## COc1cccc2c1C(=O)c1c(O)c3c(c(O)c1C2=O)C[C@@](O)(C(=O)CO)C[C@@H]3O[C@H]1C[C@H](N)[C@H](O)[C@H](C)O1 [DOXORUBICIN]
[1]
  EC50: 0.17 mg/L (≈ 0.313 µM)
SK-OV-3
  EC50: 0.09 mg/L (≈ 0.166 µM)
A549
  EC50: 0.11 mg/L (≈ 0.202 µM)
SK-MEL-2
  EC50: 0.04 mg/L (≈ 0.0736 µM)
XF498
  EC50: 0.07 mg/L (≈ 0.129 µM)

## CC(C)[C@H](C)/C=C/[C@@H](C)[C@H]1CCC2C3=CC(=O)O[C@@]3(O)CC[C@@]21C (stereo not given in full) [DEMETHYLINCISTEROL A2]
[1]
  EC50: 1.28 mg/L (≈ 3.85 µM)
SK-OV-3
  EC50: 1.49 mg/L (≈ 4.48 µM)
A549
  EC50: 1.51 mg/L (≈ 4.54 µM)
SK-MEL-2
  EC50: 1.21 mg/L (≈ 3.64 µM)
XF498
  EC50: 0.93 mg/L (≈ 2.8 µM)

## CCCCO[C@@H]1C=C2[C@@H]3CC[C@H]([C@H](C)/C=C/[C@@H](C)C(C)C)[C@@]3(C)CC[C@@H]2[C@@]2(C)CC[C@H](O)C[C@]12O [HOMAXISTEROL A2]
[1]
  EC50: 4.4 mg/L (≈ 9.04 µM)
SK-OV-3
  EC50: 4.43 mg/L (≈ 9.1 µM)
A549
  EC50: 6.23 mg/L (≈ 12.8 µM)
SK-MEL-2
  EC50: 3.69 mg/L (≈ 7.58 µM)
XF498
  EC50: 4.17 mg/L (≈ 8.57 µM)

## CCCCO[C@@H]1C=C2[C@@H]3CC[C@H]([C@H](C)/C=C/CC(C)C)[C@@]3(C)CC[C@@H]2[C@@]2(C)CC[C@H](O)C[C@]12O [HOMAXISTEROL A1]
[1]
  EC50: 7.62 mg/L (≈ 16.1 µM)
SK-OV-3
  EC50: 7.57 mg/L (≈ 16 µM)
A549
  EC50: 8.54 mg/L (≈ 18.1 µM)
SK-MEL-2
  EC50: 6.88 mg/L (≈ 14.6 µM)
XF498
  EC50: 6.33 mg/L (≈ 13.4 µM)

## CC(C)C/C=C/[C@@H](C)[C@H]1CCC2C3=CC(=O)O[C@@]3(O)CC[C@@]21C (stereo not given in full) [DEMETHYLINCISTEROL A1]
[1]
  EC50: 1.42 mg/L (≈ 4.46 µM)
SK-OV-3
  EC50: 1.7 mg/L (≈ 5.34 µM)
A549
  EC50: 2.79 mg/L (≈ 8.76 µM)
SK-MEL-2
  EC50: 1.94 mg/L (≈ 6.09 µM)
XF498
  EC50: 1.08 mg/L (≈ 3.39 µM)

## CC(C)[C@@H](C)/C=C/[C@@H](C)[C@H]1CCC2C3=CC(=O)O[C@@]3(O)CC[C@@]21C (stereo not given in full) [DEMETHYLINCISTEROL A3]
[1]
  EC50: 1.39 mg/L (≈ 4.18 µM)
SK-OV-3
  EC50: 1.97 mg/L (≈ 5.93 µM)
A549
  EC50: 1.62 mg/L (≈ 4.87 µM)
SK-MEL-2
  EC50: 1.3 mg/L (≈ 3.91 µM)
XF498
  EC50: 1.14 mg/L (≈ 3.43 µM)

## CC[C@@H](/C=C/[C@@H](C)[C@H]1CCC2C3=CC(=O)O[C@@]3(O)CC[C@@]21C)C(C)C (stereo not given in full) [DEMETHYLINCISTEROL A4]
[1]
  EC50: 0.65 mg/L (≈ 1.88 µM)
SK-OV-3
  EC50: 0.79 mg/L (≈ 2.28 µM)
A549
  EC50: 0.92 mg/L (≈ 2.66 µM)
SK-MEL-2
  EC50: 0.55 mg/L (≈ 1.59 µM)
XF498
  EC50: 0.68 mg/L (≈ 1.96 µM)
